“And” between values parts separate entries of the source, which are not always exact repeats. Equal entries are not always repeated. Values belong to the compound of their own block, whether it stands above or below them. *1 amine or outer side, *2 acyl side, *3 side chain or, on linkers, in order; H or OH if unused. Where a SMILES comes first, the peptide text is derived from it. The star is where a group is joined. AMC = Cc1cc(=O)oc2cc(N*)ccc12; Suc = O=C(CCC(=O)[*:2])[*:1]; Cbz = O=C(OCc1ccccc1)*
Key:
[1] = test system: Cat1 S1 fur extract proteolytic activity; assay: Proteolytic activity of fur extract against NHMec substrates; assay type: biochemical, cat; conditions: sample Cat1 S1, 5 μM substrate, 37° C., pH 7.5
Method: (§1) A clean pet brush was used to brush three common English domestic cats. Fur from guinea pigs, rabbit, dogs and horse was collected in the same way. A different brush was used for each species and between brushings these were cleaned thoroughly in a denaturing detergent solution (Fairy® detergent) and then ethanol. The brushings were transferred to a sterile universal container and extracted by shaking in an extraction buffer, 50 mM Tris.HCl, 5 mM CaCl2, pH 7.5 (0.1 g/ml). The solution was recovered by centrifugation and stored at −20° C. in aliquots. Saliva was collected from a mastiff-type dog and stored frozen in aliquots until assayed. Sample aliquots were assayed for proteolytic activity using fluorometric blocked peptidylaminomethylcoumarylamide substrates in the cuvette of a Perkin Elmer fluorimeter at 37° C. The fluorimeter was standardised with a known concentration of methylcoumarin, and the assays were designed so that no more than 10% substrate hydrolysis occurred.
(§2) Assays were performed in assay buffer; 50 mM Tris.HCl, 5 mM CaCl2, 0.1% CHAPS, pH 7.5. Data were collected in real-time on a personal computer using the Flusys software package.
(§3) In the first series of experiments the sample (12 μl) was assayed against a range of serine and cysteine proteinase aminomethylcoumarylamide (NHMec) substrates (obtained commercially from Bachem) under standard conditions of 5 μM substrate concentration (from a 100-fold stock solution in dimethyl sulfoxide) to give a final volume of 120 μl. After addition of substrate the rate without sample was determined (which in all cases was zero), after which the sample was applied and the progress of the reaction was followed for a further 15 min. The slope obtained (fluorescence vs time) was analysed by linear regression and converted to rate of product formation (nM/min) see results table 2.

[2] = test system: Cat2 S1 fur extract proteolytic activity; assay: as above; assay type: biochemical, cat; conditions: sample Cat2 S1, 5 μM substrate, 37° C., pH 7.5
Method: as §1, §2, §3

cat fur enzyme(s) = assay: Rates of cleavage at varying substrate concentration and Km; assay type: biochemical; conditions: for Rate: cat fur sample; for Km: non-linear regression, Enzfitter, rough estimate
Method: as §3
A rough estimate of the Km for the cleavage of Z-Gly-Gly-Arg-NHMec and of Z-Phe-Arg-NHMec by the cat fur enzyme(s) were determined using the same procedure with varying concentrations of these substrates see results table 3.
As the activity follows normal Michaelis-Menten kinetics it is clear that it is due to the activity of one or more biological catalysts or enzymes.

[3] = test system: Dog1 S1 fur extract proteolytic activity; assay: Proteolytic activity of fur extract against NHMec substrates; assay type: biochemical, dog; conditions: sample Dog1 S1 (fur), 5 μM substrate, 37° C., pH 7.5
Method: as §1, with “Sample aliquots were assayed for proteolytic activity using fluorometric blocked peptidylaminomethylcoumarylamide substrates in the cuvette of a Perkin Elmer fluorimeter at 37° C. The fluorimeter was standardised with a known concentration of methylcoumarin, and the assays were designed so that no more than 10% substrate hydrolysis occurred.” left out
as §3

[4] = test system: Cat1 S3 fur extract proteolytic activity; assay: as above; assay type: biochemical, cat; conditions: sample Cat1 S3, 5 μM substrate, 37° C., pH 7.5
Method: as §1, §2, §3

[5] = test system: Cat3 S1 fur extract proteolytic activity; assay: as above; assay type: biochemical, cat; conditions: sample Cat3 S1, 5 μM substrate, 37° C., pH 7.5
Method: as §1, §2, §3

[6] = test system: Dog1 S2 saliva proteolytic activity; assay: Proteolytic activity of saliva against NHMec substrates; assay type: biochemical, dog; conditions: sample Dog1 S2 (saliva), 5 μM substrate, 37° C., pH 7.5
Method: as §1, with “Sample aliquots were assayed for proteolytic activity using fluorometric blocked peptidylaminomethylcoumarylamide substrates in the cuvette of a Perkin Elmer fluorimeter at 37° C. The fluorimeter was standardised with a known concentration of methylcoumarin, and the assays were designed so that no more than 10% substrate hydrolysis occurred.” left out
as §3

[7] = test system: G. pig1 S1 fur extract proteolytic activity; assay: Proteolytic activity of fur extract against NHMec substrates; assay type: biochemical, guinea pig; conditions: sample G. pig1 S1, 5 μM substrate, 37° C., pH 7.5
Method: as §1, with “Sample aliquots were assayed for proteolytic activity using fluorometric blocked peptidylaminomethylcoumarylamide substrates in the cuvette of a Perkin Elmer fluorimeter at 37° C. The fluorimeter was standardised with a known concentration of methylcoumarin, and the assays were designed so that no more than 10% substrate hydrolysis occurred.” left out
as §3

[8] = test system: G. pig2 S1 fur extract proteolytic activity; assay: as above; assay type: biochemical, guinea pig; conditions: sample G. pig2 S1, 5 μM substrate, 37° C., pH 7.5
Method: as §1, with “Sample aliquots were assayed for proteolytic activity using fluorometric blocked peptidylaminomethylcoumarylamide substrates in the cuvette of a Perkin Elmer fluorimeter at 37° C. The fluorimeter was standardised with a known concentration of methylcoumarin, and the assays were designed so that no more than 10% substrate hydrolysis occurred.” left out
as §3

[9] = test system: Rabbit1 S1 fur extract proteolytic activity; assay: as above; assay type: biochemical, rabbit; conditions: sample Rabbit1 S1, 5 μM substrate, 37° C., pH 7.5
Method: as §1, with “Sample aliquots were assayed for proteolytic activity using fluorometric blocked peptidylaminomethylcoumarylamide substrates in the cuvette of a Perkin Elmer fluorimeter at 37° C. The fluorimeter was standardised with a known concentration of methylcoumarin, and the assays were designed so that no more than 10% substrate hydrolysis occurred.” left out
as §3

[10] = test system: Cat1 S3 fur extract proteolytic activity; assay: Inhibition of the proteolytic activity in animal fur by proteinase inhibitors; assay type: biochemical, cat; conditions: Cat1 S3, 10 μM inhibitor, substrate 1 Z-Gly-Gly-Arg-NHMec
Method: […] The assay was begun with substrate and sample and a continuous rate of product formation (nM/min) was measured (v0) for 15 min. The inhibitor was added to a final concentration of 10 μM in negligible volume from stock solution in dimethyl sulfoxide. The assay was continued for a further 15 min.
Under these conditions reversible inhibition can be measured as the new steady state (v1) with percentage inhibition being 1−(v1/v0)×100. Irreversible inhibition is measured as a second order rate constant and is time dependent but as long as the inhibitor is present in molar excess should always lead eventually to total inhibition. No distinction was made and inhibition is presented as a percentage of full activity. See results table 4.

Compound: Cc1cc(=O)oc2cc(NC(=O)[C@H](C)NC(=O)[C@H](C)NC(=O)[C@H](C)NC(=O)CCC(=O)O)ccc12 [Suc-Ala-Ala-Ala-NHMec]
- Rate [1]: No activity
- Rate [2]: No activity

Compound: Cc1cc(=O)oc2cc(NC(=O)[C@H](Cc3ccccc3)NC(=O)[C@H](C)NC(=O)[C@H](C)NC(=O)CCC(=O)O)ccc12 [Suc-Ala-Ala-Phe-NHMec] (Suc-Ala-Ala-Phe-{AMC})
- Rate [1]: No activity
- Rate [2]: 0.03 nM/min

Compound: Cc1cc(=O)oc2cc(NC(=O)[C@H](Cc3ccccc3)NC(=O)[C@@H]3CCCN3C(=O)[C@H](C)NC(=O)[C@H](C)NC(=O)CCC(=O)O)ccc12 [Suc-Ala-Ala-Pro-Phe-NHMec] (Suc-AAPF-{AMC})
- Rate [1]: 0.04 nM/min
- Rate [2]: 0.05 nM/min

Compound: Cc1cc(=O)oc2cc(NC(=O)[C@@H](NC(=O)[C@@H]3CCCN3C(=O)[C@H](C)NC(=O)[C@H](C)NC(=O)CCC(=O)O)C(C)C)ccc12 [Suc-Ala-Ala-Pro-Val-NHMec] (Suc-AAPV-{AMC})
- Rate [1]: No activity
- Rate [2]: No activity

Compound: Cc1cc(=O)oc2cc(NC(=O)[C@H](CCCCN)NC(=O)[C@H](Cc3ccccc3)NC(=O)[C@H](C)NC(=O)CCC(=O)O)ccc12 [Suc-Ala-Phe-Lys-NHMec] (Suc-Ala-Phe-Lys-{AMC})
- Rate [1]: No activity
- Rate [2]: No activity

- Rate (cat fur enzyme(s); [Substrate] 5 μM): 1.47 nM/min
- Rate (cat fur enzyme(s); [Substrate] 10 μM): 2.42 nM/min
- Rate (cat fur enzyme(s); [Substrate] 20 μM): 3.41 nM/min
- Rate (cat fur enzyme(s); [Substrate] 40 μM): 4.82 nM/min and 8.84 nM/min
- Rate (cat fur enzyme(s); [Substrate] 60 μM): 10.01 nM/min
- Rate (cat fur enzyme(s); [Substrate] 80 μM): 13.27 nM/min
- Rate (cat fur enzyme(s); [Substrate] 100 μM): 11.40 nM/min
- Rate (cat fur enzyme(s); [Substrate] 125 μM): 13.49 nM/min
- Km (cat fur enzyme(s)): 95 ± 47 µM
Compound: Cc1cc(=O)oc2cc(NC(=O)[C@H](CCCN=C(N)N)NC(=O)CNC(=O)CNC(=O)OCc3ccccc3)ccc12 [Z-Gly-Gly-Arg-NHMec]
- Rate [1]: 0.87 nM/min
- Rate [2]: 1.35 nM/min

- Rate (cat fur enzyme(s); [Substrate] 0.5 μM): 3.74 nM/min
- Rate (cat fur enzyme(s); [Substrate] 1.0 μM): 6.99 nM/min
- Rate (cat fur enzyme(s); [Substrate] 2.0 μM): 10.2 nM/min
- Rate (cat fur enzyme(s); [Substrate] 5 μM): 27.3 nM/min
- Rate (cat fur enzyme(s); [Substrate] 60 μM): 35.4 nM/min
- Rate (cat fur enzyme(s); [Substrate] 80 μM): 32.3 nM/min
- Rate (cat fur enzyme(s); [Substrate] 100 μM): 33.7 nM/min
- Km (cat fur enzyme(s)): 3.2 ± 0.9 µM
Compound: Cc1cc(=O)oc2cc(NC(=O)C(CCCN=C(N)N)NC(=O)C(Cc3ccccc3)NC(=O)OCc3ccccc3)ccc12 (stereo not drawn) [Z-Phe-Arg-NHMec] (Cbz-Phe-Arg-{AMC}; configuration not given here)
- Rate [3]: 40.6 nM/min
- Rate [4]: 43.5 nM/min
- Rate [5]: 24.5 nM/min
- Rate [6]: 1786.9 nM/min
- Rate [7]: 9.11 nM/min
- Rate [8]: 18.66 nM/min
- Rate [9]: 3.93 nM/min

- % Inhibition [10]: 89.6%
- v1 (rate after inhibitor) [10]: 0.292 nM/min
Compound: Aprotinin
